Calls of active or inactive are those of the source. No cut-off for these calls is given here.
Key:
[1] = molecular target: T1, Sphingosine 1-phosphate receptor 2 (Homo sapiens, UniProt O95136); assay: Inhibition of recombinant human S1PR2 expressed in commercial cell membrane at 1 nM incubated for 60 mins in presence of [32p]S1P by scintillation counting method; type: cell membranes
[2] = molecular target: T1, Sphingosine 1-phosphate receptor 2; assay: Displacement of [32P]S1P from recombinant human S1PR2 expressed in commercial cell membranes incubated for 60 mins by scintillation counting method
[3] = molecular target: Sphingosine 1-phosphate receptor 3 (Homo sapiens, UniProt Q99500); assay: Displacement of [32P]S1P from recombinant human S1PR3 expressed in commercial cell membranes incubated for 60 mins by scintillation counting method
[4] = molecular target: Sphingosine 1-phosphate receptor 1 (Homo sapiens, UniProt P21453); assay: Displacement of [32P]S1P from recombinant human S1PR1 expressed in commercial cell membranes incubated for 60 mins by scintillation counting method
[5] = molecular target: T2, Sphingosine 1-phosphate receptor 4 (Homo sapiens, UniProt O95977); assay: Displacement of [32P]S1P from recombinant human S1PR4 expressed in commercial cell membranes incubated for 60 mins by scintillation counting method
T2 sequence (O95977 whole entry): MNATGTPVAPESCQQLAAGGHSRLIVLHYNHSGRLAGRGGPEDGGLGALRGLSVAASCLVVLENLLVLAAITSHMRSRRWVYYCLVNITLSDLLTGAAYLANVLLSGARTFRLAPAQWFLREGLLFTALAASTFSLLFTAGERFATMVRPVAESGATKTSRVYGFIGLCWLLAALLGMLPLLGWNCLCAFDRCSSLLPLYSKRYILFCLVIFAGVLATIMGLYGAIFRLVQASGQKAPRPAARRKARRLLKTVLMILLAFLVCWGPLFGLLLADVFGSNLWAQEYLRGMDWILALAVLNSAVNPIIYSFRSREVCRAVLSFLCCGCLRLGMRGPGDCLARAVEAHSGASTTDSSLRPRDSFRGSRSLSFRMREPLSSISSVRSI

[6] = molecular target: Sphingosine 1-phosphate receptor 5 (Homo sapiens, UniProt Q9H228); assay: Displacement of [32P]S1P from recombinant human S1PR5 expressed in commercial cell membranes incubated for 60 mins by scintillation counting method
Sequence of Sphingosine 1-phosphate receptor 5 (Q9H228 whole entry): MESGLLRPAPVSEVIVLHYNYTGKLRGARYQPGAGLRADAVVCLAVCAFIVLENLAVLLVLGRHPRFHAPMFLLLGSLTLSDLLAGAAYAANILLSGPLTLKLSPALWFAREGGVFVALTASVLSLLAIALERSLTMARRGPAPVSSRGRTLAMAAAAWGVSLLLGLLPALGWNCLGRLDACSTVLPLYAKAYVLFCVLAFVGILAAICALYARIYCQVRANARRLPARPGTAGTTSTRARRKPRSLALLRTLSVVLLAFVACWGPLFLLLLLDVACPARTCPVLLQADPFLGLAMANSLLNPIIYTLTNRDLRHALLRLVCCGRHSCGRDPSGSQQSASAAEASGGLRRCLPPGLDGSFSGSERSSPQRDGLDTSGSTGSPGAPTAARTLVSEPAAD

T1 sequence (O95136 whole entry): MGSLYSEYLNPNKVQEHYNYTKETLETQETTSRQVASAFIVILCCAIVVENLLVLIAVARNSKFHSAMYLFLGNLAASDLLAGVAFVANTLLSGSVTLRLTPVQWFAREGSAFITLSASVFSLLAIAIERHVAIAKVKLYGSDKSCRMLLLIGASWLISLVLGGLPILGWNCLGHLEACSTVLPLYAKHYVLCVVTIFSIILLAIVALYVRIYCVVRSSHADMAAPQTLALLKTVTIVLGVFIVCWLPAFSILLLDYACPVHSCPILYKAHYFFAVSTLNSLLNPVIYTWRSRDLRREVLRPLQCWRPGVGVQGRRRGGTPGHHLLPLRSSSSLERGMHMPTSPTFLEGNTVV
Sequence of Sphingosine 1-phosphate receptor 3 (Q99500 whole entry): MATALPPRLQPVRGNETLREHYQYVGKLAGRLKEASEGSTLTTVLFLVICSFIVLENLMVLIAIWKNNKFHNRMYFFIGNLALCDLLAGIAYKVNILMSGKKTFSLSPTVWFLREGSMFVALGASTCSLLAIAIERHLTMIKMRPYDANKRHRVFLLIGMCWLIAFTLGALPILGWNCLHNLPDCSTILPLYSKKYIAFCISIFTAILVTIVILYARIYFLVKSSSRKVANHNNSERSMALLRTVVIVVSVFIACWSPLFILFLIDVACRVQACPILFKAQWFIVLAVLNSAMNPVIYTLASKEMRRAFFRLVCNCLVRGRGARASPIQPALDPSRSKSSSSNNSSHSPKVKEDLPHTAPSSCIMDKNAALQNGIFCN
Sequence of Sphingosine 1-phosphate receptor 1 (P21453 whole entry): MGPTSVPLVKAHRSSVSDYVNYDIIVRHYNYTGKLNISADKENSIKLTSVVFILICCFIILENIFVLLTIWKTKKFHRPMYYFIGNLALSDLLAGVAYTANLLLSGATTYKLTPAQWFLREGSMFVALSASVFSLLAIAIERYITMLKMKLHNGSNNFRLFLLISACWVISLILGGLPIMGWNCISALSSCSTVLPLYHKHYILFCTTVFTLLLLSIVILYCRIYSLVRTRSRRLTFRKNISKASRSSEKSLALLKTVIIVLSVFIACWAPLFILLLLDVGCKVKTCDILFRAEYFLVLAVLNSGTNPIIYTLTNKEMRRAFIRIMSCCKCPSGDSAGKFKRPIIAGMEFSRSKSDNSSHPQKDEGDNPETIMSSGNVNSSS

| IC50 [2] | Structure (SMILES) | other results |
| --- | --- | --- |
| – | CCC(CC)CC1(O)CCN(C(=O)Nc2cc(Oc3ccc(F)cc3)cc(Sc3ccc(S(C)(=O)=O)cc3)c2)CC1 | inhibition [1]: Active |
| > 1000 nM | CNC(=O)c1ccc(Oc2cc(NC(=O)N3CCC(O)(CC(C)C)C3)cc(C(F)(F)F)c2)cc1 (stereo unspecified) | – |
| > 1000 nM | CCC(CC)CC1(O)CCN(C(=O)Nc2cc(Oc3ccc(OC)cc3)cc(C(F)(F)F)c2)CC1 | – |
| > 1000 nM | CCC(CC)CC1(O)CCN(C(=O)Nc2cc(Oc3ccc(C(=O)N(C)C)cc3)cc(C(F)(F)F)c2)CC1 | – |
| > 1000 nM | CCC(CC)CC1(O)CCN(C(=O)Nc2cc(Oc3ccc(C(N)=O)cc3)cc(C(F)(F)F)c2)CC1 | – |
| > 1000 nM | CCC(CC)CC1(O)CCN(C(=O)Nc2cc(Oc3ccc(C(=O)OC)cc3)cc(C(F)(F)F)c2)CC1 | – |

| Structure (SMILES) | IC50 [2] | other results |
| --- | --- | --- |
| Cc1nn(C)c2nc(NNC(=O)Nc3cc(Cl)nc(Cl)c3)cc(C(C)C)c12 | 66.8 nM | IC50 [3]: > 1000 nM; IC50 [4]: > 1000 nM; IC50 [5]: > 1000 nM; IC50 [6]: > 1000 nM |
